In US20090263324A1, “Animal Model With Induced Arrhythmia” (priority 2005, published 2009):

How the values were obtained:
[1] = system: chronic atrioventricular block monkeys; experiment: Evaluation of QT interval prolongation by dl-sotalol (Holter electrocardiogram); assay type: in vivo, cynomolgus monkey; settings: oral administration of 5 mg/kg
Text: QTc interval (ms) is a value obtained by correcting the fluctuation of QT interval due to heart rate by a numerical formula, and can be obtained by the following equation.
QTc=QT÷^3√{square root over ( )} (60÷ventricular rhythm)
Here, ventricular rhythm refers to the frequency of excitation of the ventricle in a complete atrioventricular block, and the unit of measurement is beat/minute.
Next, a comparison is made between the QT interval or QTc interval in the recipient animal and the QT interval or QTc interval in the same animal but before administration. QT interval or QTc interval prolongation can be determined by (value after administration)−(value before administration).
As the control solution, 0.5% methylcellulose solution was orally administered, and changes of electrocardiogram were examined; on a later day, 5 mg/kg dl-sotalol (group-3 antiarrhythmic agent) was orally administered to the same animals, and electrocardiogram was measured.

[2] = system: chronic atrioventricular block monkey model; experiment: Examination for onset of Torsades de pointes (TdP) with dl-sotalol administration; assay type: in vivo, cynomolgus monkey; settings: five animals
Experimental: A Holter electrocardiograph was attached to each of five animals of the chronic atrioventricular block monkey model obtained in Example 1; 1, 3, 5 or 10 mg/kg dl-sotalol was orally administered to each animal, and electrocardiogram after administration was monitored.

## CC(C)NCC(O)c1ccc(NS(C)(=O)=O)cc1 (racemic) [dl-sotalol]
[1]
  time after administration with statistically significant QTc action compared to the solvent group: 1 to 4 h
[1]; Holter electrocardiograph for 24 hours, compared to the solvent group
  QTc interval prolongation: QTc interval prolongation was observed
[2]; 5 mg/kg orally
  animals in which TdP occurred: 4 of the 5 animals
[2]; 10 mg/kg orally
  animals in which TdP occurred: all animals
